Measurements taken from patent US11591323B2, “Muscarinic agonists as non-steroidal and non-opioid analgesics and methods of use thereof” (Barry University, priority 2019, dated 2023).
Where two headings read alike, the source gives them in different places.

Experiments:
Design in all cases: host or cells: CHO cells, stably transfected
M1 muscarinic receptor [1] = biological target: T1, M1 muscarinic receptor (Homo sapiens, UniProt P11229); test: [3H]NMS competition binding, M1 CHO membranes; conditions: competition with 1 nM [3H]NMS; read-out: Inhibition constants (Ki) as negative logarithms, M1 (converted)
T1 sequence (P11229 1-460): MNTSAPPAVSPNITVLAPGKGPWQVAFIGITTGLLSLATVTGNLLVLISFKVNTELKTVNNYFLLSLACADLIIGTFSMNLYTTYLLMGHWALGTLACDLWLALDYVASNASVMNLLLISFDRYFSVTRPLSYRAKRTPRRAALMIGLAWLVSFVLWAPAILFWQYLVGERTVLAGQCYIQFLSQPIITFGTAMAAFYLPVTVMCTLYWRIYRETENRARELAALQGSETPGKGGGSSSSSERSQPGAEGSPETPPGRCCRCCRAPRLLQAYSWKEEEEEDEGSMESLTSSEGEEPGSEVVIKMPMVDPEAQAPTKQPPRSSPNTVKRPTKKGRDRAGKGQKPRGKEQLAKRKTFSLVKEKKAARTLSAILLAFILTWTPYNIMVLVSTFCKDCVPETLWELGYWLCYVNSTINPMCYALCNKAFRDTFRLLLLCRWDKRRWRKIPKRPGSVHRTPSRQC

M3 muscarinic receptor [2] = biological target: T2, M3 muscarinic receptor (Homo sapiens, UniProt P20309); test: [3H]NMS competition binding, M3 CHO membranes; conditions: competition with 1 nM [3H]NMS; read-out: Inhibition constants (Ki) as negative logarithms, M3 (converted)
M4 muscarinic receptor = biological target: T3, M4 muscarinic receptor (Homo sapiens, UniProt P08173); test: [3H]NMS competition binding, M4 CHO membranes
T3 sequence (P08173 1-479): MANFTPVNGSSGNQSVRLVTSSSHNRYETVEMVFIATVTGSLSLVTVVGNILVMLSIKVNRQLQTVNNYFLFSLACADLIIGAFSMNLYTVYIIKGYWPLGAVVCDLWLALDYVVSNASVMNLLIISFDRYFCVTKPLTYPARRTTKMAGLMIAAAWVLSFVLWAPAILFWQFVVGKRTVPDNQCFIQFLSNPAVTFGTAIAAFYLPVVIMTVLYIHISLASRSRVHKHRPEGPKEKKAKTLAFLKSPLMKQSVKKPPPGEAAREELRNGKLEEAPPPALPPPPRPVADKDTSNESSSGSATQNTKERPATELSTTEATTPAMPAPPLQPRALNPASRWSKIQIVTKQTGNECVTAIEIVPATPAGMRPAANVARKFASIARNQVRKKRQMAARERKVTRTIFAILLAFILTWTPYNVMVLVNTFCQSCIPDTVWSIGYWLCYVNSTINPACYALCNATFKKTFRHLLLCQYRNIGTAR

M5 muscarinic receptor = biological target: T4, M5 muscarinic receptor (Homo sapiens, UniProt P08912); test: [3H]NMS competition binding, M5 CHO membranes; conditions: competition with 1 nM [3H]NMS; read-out: Inhibition constants (Ki) as negative logarithms, M5 (converted)
T4 sequence (P08912 1-532): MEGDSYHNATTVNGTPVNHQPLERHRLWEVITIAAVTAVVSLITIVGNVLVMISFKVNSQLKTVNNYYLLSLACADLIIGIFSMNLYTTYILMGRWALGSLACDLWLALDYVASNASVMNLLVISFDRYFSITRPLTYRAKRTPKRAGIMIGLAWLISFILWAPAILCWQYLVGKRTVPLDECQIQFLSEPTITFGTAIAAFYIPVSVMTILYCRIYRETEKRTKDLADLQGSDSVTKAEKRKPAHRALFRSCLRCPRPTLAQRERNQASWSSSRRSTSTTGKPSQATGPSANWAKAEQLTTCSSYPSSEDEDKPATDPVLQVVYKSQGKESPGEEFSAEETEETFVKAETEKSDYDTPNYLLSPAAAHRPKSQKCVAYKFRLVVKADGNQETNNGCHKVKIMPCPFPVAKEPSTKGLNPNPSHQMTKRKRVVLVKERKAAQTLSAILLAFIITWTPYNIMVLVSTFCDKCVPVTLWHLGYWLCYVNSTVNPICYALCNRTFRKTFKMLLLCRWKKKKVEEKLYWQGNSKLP

M1 muscarinic receptor [3] = biological target: T1, M1 muscarinic receptor; test: accumulation of inositol phosphates IPX, M1 CHO cells (M1Gq); type: cell-based; conditions: for Kd: operational model, read-out: pKA (converted); for EC50: read-out: pEC50 (converted)
M2 muscarinic receptor = biological target: T5, M2 muscarinic receptor (Homo sapiens, UniProt P08172); test: inhibition of forskolin-stimulated cAMP, M2 CHO cells (M2Gi); type: cell-based; conditions: for Emax: CHO; for Kd: operational model, read-out: pKA (converted); for EC50: read-out: pEC50 (converted)
T5 sequence (P08172 1-466): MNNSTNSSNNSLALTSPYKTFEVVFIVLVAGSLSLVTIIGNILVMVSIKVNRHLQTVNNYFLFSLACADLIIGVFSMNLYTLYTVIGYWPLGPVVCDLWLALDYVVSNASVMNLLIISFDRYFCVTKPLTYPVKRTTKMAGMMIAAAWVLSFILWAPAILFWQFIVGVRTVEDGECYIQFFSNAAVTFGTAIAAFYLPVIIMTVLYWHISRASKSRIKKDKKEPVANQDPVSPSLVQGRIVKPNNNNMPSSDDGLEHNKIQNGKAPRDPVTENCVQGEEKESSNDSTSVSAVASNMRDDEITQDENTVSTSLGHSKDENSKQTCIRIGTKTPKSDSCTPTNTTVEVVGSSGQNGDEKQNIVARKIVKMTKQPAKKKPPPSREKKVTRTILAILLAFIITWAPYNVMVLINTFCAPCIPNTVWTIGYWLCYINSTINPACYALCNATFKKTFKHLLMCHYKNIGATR

M3 muscarinic receptor [4] = biological target: T2, M3 muscarinic receptor; test: accumulation of IPX, M3 CHO cells (M3Gq); type: cell-based; conditions: for Kd: read-out: pKA (converted); for EC50: read-out: pEC50 (converted)
[5] = competition with 1 nM [3H]NMS, read-out: Inhibition constants (Ki) as negative logarithms, M4 (converted)
[6] = M1 (↑IPX), preferential response, Table 7
[7] = M1 (↑IPX), preferential response, Table 7, operational efficacy
[8] = M1 (↑IPX), preferential response, relative to carbachol, Tables 2, 3, 7
[9] = M1 (↑IPX), preferential response, to carbachol, Tables 2, 3, 7
[10] = M2 (↓cAMP), preferential response, Table 7, read-out: E′MAX
[11] = M2 (↓cAMP), preferential response, Table 7, operational efficacy
[12] = M2 (↓cAMP), preferential response, Table 7
[13] = M3 (↑IPX), preferential response, Table 7
[14] = M3 (↑IPX), preferential response, Table 7, operational efficacy
[15] = M3 (↑IPX), preferential response, Table 7, operational model
[16] = M3 (↑IPX), preferential response, relative to carbachol, Tables 2, 3, 7
[17] = M3 (↑IPX), preferential response, to carbachol, Tables 2, 3, 7
[18] = M2 (↓cAMP), preferential response, relative to carbachol, Tables 2, 3, 7
[19] = M2 (↓cAMP), preferential response, to carbachol, Tables 2, 3, 7

T2 sequence (P20309 whole entry): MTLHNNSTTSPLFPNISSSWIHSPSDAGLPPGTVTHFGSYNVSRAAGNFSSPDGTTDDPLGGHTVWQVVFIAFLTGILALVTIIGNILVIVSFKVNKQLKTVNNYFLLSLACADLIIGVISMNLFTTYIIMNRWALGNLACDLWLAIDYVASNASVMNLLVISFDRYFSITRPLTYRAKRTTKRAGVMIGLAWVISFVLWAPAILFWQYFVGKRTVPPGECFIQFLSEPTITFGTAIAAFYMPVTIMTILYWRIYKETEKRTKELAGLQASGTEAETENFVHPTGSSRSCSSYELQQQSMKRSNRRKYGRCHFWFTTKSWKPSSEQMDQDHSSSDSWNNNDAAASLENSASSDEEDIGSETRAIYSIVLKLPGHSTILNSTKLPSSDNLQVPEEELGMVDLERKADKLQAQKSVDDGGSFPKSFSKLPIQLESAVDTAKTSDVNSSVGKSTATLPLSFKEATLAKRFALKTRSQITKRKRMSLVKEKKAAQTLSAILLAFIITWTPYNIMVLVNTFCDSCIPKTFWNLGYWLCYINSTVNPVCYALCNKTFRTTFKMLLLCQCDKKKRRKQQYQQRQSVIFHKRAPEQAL

| Structure (SMILES) | Ki (M1 muscarinic receptor [1]) [µM] | Ki (M3 muscarinic receptor [2]) [µM] | Ki (M4 muscarinic receptor; [5]) [µM] | Ki (M5 muscarinic receptor) [µM] | E′MAX (M1 muscarinic receptor [3]; [6]) [fold over basal] | τ (M1 muscarinic receptor [3]; [7]) | Kd (M1 muscarinic receptor [3]; [6]) [µM] | EC50 (M1 muscarinic receptor [3]; [6]) [µM] | RAi (M1 muscarinic receptor [3]; [8]) | Δlog(τ/KA) (M1 muscarinic receptor [3]; [9]) | Emax (M2 muscarinic receptor; [10]) [%] | τ (M2 muscarinic receptor; [11]) | Kd (M2 muscarinic receptor; [12]) [µM] | EC50 (M2 muscarinic receptor; [12]) [µM] | E′MAX (M3 muscarinic receptor [4]; [13]) [fold over basal] | τ (M3 muscarinic receptor [4]; [14]) | Kd (M3 muscarinic receptor [4]; [15]) [µM] | EC50 (M3 muscarinic receptor [4]; [13]) [µM] | RAi (M3 muscarinic receptor [4]; [16]) | Δlog(τ/KA) (M3 muscarinic receptor [4]; [17]) | also measured |
| --- | --- | --- | --- | --- | --- | --- | --- | --- | --- | --- | --- | --- | --- | --- | --- | --- | --- | --- | --- | --- | --- |
| C[N+]1(Cc2cccs2)CC=CCC1.[I-] (stereo not drawn) [Compound 7A, 1-methyl-1-[(thiophen-2-yl)methyl]-1,2,3,6-tetrahydropyridin-1-ium iodide] | 11.2 | 7.94 | 7.94 | 10 | 4.6 ± 0.4 | 0.12 ± 0.01 | 3.16 | 2.63 | 0.0111 ± 0.0002 | 1.96 ± 0.16 | 53 ± 2 | 1.51 ± 0.15 | 1 | 0.389 | 3.0 ± 0.3 | 0.08 ± 0.01 | 3.16 | 3.16 | 0.011 ± 0.001 | 1.94 ± 0.20 | E′MAX (M1 muscarinic receptor [3]; M1Gq (↑IPX), Table 8): 4.6 ± 0.4 fold increase; pEC50 (M1 muscarinic receptor [3]; M1Gq (↑IPX), Table 8): 5.58 ± 0.03; pKA (M1 muscarinic receptor [3]; M1Gq (↑IPX), Table 8): 5.5 ± 0.1; τ (M1 muscarinic receptor [3]; M1Gq (↑IPX), Table 8): 0.12 ± 0.01; RAi (M1 muscarinic receptor [3]; M1Gq (↑IPX), Table 8, relative to carbachol): 0.012 ± 0.006; Δlog(τ/KA) (M1 muscarinic receptor [3]; M1Gq (↑IPX), Table 8, to carbachol): 1.93 ± 0.25; E′MAX (M2 muscarinic receptor; M2Gi (↓cAMP), Table 8): 53 ± 2 % inhibition; pEC50 (M2 muscarinic receptor; M2Gi (↓cAMP), Table 8): 6.41 ± 0.05; pKA (M2 muscarinic receptor; M2Gi (↓cAMP), Table 8): 6.0 ± 0.1; τ (M2 muscarinic receptor; M2Gi (↓cAMP), Table 8): 1.5 ± 0.2; RAi (M2 muscarinic receptor; M2Gi (↓cAMP), Table 8, relative to carbachol): 0.140 ± 0.008; Δlog(τ/KA) (M2 muscarinic receptor; M2Gi (↓cAMP), Table 8, to carbachol): 0.93 ± 0.09; E′MAX (M3 muscarinic receptor [4]; M3Gq (↑IPX), Table 8): 2.6 ± 0.3 fold over basal; τ (M3 muscarinic receptor [4]; M3Gq (↑IPX), Table 8): 0.06 ± 0.01; RAi (M3 muscarinic receptor [4]; M3Gq (↑IPX), Table 8, relative to carbachol): 0.0084 ± 0.0011; Δlog(τ/KA) (M3 muscarinic receptor [4]; M3Gq (↑IPX), Table 8, to carbachol): 2.08 ± 0.34; EC50 (M3 muscarinic receptor [4]; M3Gq (↑IPX), Table 8): 3.98 µM; Kd (M3 muscarinic receptor [4]; M3Gq (↑IPX), Table 8): 3.98 µM |
| Cc1ccc(C[N+]2(C)CC=CCC2)s1.[I-] (stereo not drawn) [Compound 7B, 1-methyl-1-[(5-methylthiophen-2-yl)methyl]-1,2,3,6-tetrahydropyridin-1-ium iodide] | 3.98 | 5.25 | 4.37 | 3.39 | 3.9 ± 0.4 | 0.09 ± 0.01 | 5.01 | 5.01 | 0.0058 ± 0.0007 | 2.24 ± 0.18 | 36 ± 1 | 0.69 ± 0.07 | 1.58 | 0.933 | 4.4 ± 0.4 | 0.14 ± 0.01 | 5.01 | 8.32 | 0.0077 ± 0.0008 | 2.11 ± 0.12 | binding that occurred with high affinity (M4 muscarinic receptor; fraction of binding to M4): ~10%; Ki (M4 muscarinic receptor; high-affinity fraction of binding to M4, read-out: high affinity binding): ~0.03 µM; RAi (M2 muscarinic receptor; [18]): 0.029 ± 0.002; Δlog(τ/KA) (M2 muscarinic receptor; [19]): 1.48 ± 0.15 |
| C[N+]1(Cc2ccc(Br)s2)CC=CCC1.[I-] (stereo not drawn) [Compound 7C, 1-[(5-bromothiophen-2-yl)methyl]-1-methyl-1,2,3,6-tetrahydropyridin-1-ium iodide] | 1.51 | 2.04 | 1.45 | 0.977 | 1.8 ± 0.2 | 0.02 ± 0.01 | 2.51 | 2.51 | – | – | – | 0.76 ± 0.08 | 3.16 | 1.62 | 1.6 ± 0.1 | 0.02 ± 0.01 | 2.51 | 2.51 | – | – | RAi (M1 muscarinic receptor [3]): 0.0024 ± 0.0004; Δlog(τ/KA) (M1 muscarinic receptor [3]): 2.62 ± 0.18; Emax (M2 muscarinic receptor): 38 ± 2%; RAi (M2 muscarinic receptor; [18]): 0.018 ± 0.002; Δlog(τ/KA) (M2 muscarinic receptor; [19]): 1.69 ± 0.09; RAi (M3 muscarinic receptor [4]): 0.0042 ± 0.0005; Δlog(τ/KA) (M3 muscarinic receptor [4]): 2.38 ± 0.66 |
